The target in assay [1] is T1, COX-1 (Homo sapiens, UniProt P23219).
T1 construct: A 2.0 kb fragment containing the coding region; made in house; host or cells: SF9 insect cells (baculovirus, pVL1393)
The assay can be described thus: COX-1 activity in vitro, recombinant human enzyme (PGE2 ELISA). The class given is biochemical. Conditions: human (h); 10 μM arachidonic acid, 10-20 min pre-incubation; read-out: COX-1 ID50. The protocol:
(§1) The COX-2 inhibition activity of the compounds of this invention illustrated in the Examples was determined by the following methods.
(§2) Recombinant COX-1 and COX-2 were prepared as described by Gierse et al, [J. Biochem., 305, 479-84 (1995)]. A 2.0 kb fragment containing the coding region of either human or murine COX-1 or human or murine COX-2 was cloned into a BamH1 site of the baculovirus transfer vector pVL1393 (Invitrogen) to generate the baculovirus transfer vectors for COX-1 and COX-2 in a manner similar to the method of D. R. O'Reilly et al (Baculovirus Expression Vectors: A Laboratory Manual (1992)). Recombinant baculoviruses were isolated by transfecting 4 μg of baculovirus transfer vector DNA into SF9 insect cells (2×10^8) along with 200 ng of linearized baculovirus plasmid DNA by the calcium phosphate method. See M. D. Summers and G. E. Smith, A Manual of Methods for Baculovirus Vectors and Insect Cell Culture Procedures, Texas Agric. Exp. Station Bull. 1555 (1987). Recombinant viruses were purified by three rounds of plaque purification and high titer (10^7 -10^8 pfu/ml) stocks of virus were prepared. For large scale production, SF9 insect cells were infected in 10 liter fermentors (0.5×10^6 /ml) with the recombinant baculovirus stock such that the multiplicity of infection was 0.1. After 72 hours the cells were centrifuged and the cell pellet homogenized in Tris/Sucrose (50 mM: 25%, pH 8.0) containing 1% 3-[(3-cholamidopropyl)dimethylammonio]-1-propanesulfonate (CHAPS). The homogenate was centrifuged at 10,000×G for 30 minutes, and the resultant supernatant was stored at -80° C. before being assayed for COX activity.
(§3) b. Assay for COX-1 and COX-2 activity COX activity was assayed as PGE2 formed/μg protein/time using an ELISA to detect the prostaglandin released. CHAPS-solubilized insect cell membranes containing the appropriate COX enzyme were incubated in a potassium phosphate buffer (50 mM, pH 8.0) containing epinephrine, phenol, and heme with the addition of arachidonic acid (10 μM). Compounds were pre-incubated with the enzyme for 10-20 minutes prior to the addition of arachidonic acid. Any reaction between the arachidonic acid and the enzyme was stopped after ten minutes at 37° C./room temperature by transferring 40 μl of reaction mix into 160 μl ELISA buffer and 25 μM indomethacin. The PGE2 formed was measured by standard ELISA technology (Cayman Chemical).
For orientation: ELISA stands for enzyme-linked immunosorbent assay.

For assay [2], the target named is T2, COX-2 (Homo sapiens, UniProt P35354).
T2 construct: A 2.0 kb fragment containing the coding region; made in house; host or cells: SF9 insect cells (baculovirus, pVL1393)
T2 sequence (P35354 18-604): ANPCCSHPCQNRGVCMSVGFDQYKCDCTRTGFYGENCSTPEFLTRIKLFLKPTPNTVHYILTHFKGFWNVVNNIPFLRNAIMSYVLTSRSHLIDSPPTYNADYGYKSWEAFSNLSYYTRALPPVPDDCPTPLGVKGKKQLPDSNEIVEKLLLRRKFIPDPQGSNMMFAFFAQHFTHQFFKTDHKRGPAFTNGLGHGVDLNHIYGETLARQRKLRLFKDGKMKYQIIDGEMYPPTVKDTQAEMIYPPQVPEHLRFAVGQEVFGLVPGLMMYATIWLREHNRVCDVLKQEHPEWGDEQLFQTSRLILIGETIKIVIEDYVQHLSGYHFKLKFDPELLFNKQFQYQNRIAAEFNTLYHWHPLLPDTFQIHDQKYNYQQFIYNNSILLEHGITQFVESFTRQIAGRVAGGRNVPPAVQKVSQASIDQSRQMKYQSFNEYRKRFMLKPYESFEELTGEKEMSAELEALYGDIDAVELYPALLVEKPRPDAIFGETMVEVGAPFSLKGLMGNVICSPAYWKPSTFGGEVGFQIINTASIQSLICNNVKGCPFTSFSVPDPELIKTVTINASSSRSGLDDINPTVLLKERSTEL
Put plainly: COX-2 activity in vitro, recombinant human enzyme (PGE2 ELISA). The class given is biochemical. The following applies: human (h); 10 μM arachidonic acid, 10-20 min pre-incubation; read-out: COX-2 ID50. The protocol:
as §1, §2, §3

For another assay, the system named is carrageenan foot edema. The assay can be described thus: Rat Carrageenan Foot Pad Edema Test. The class given is in vivo, rat (male Sprague-Dawley). The following applies: @ 10 mg/kg body weight, oral, 1 h before carrageenan; read 3 h after injection. The protocol:
Rat Carrageenan Foot Pad Edema Test
Male Sprague-Dawley rats were selected in each group so that the average body weight was as close as possible. Rats were fasted with free access to water for over sixteen hours prior to the test. […] One hour later a subplantar injection of 0.1 mL of 1% solution of carrageenan/sterile 0.9% saline was administered and the volume of the injected foot was measured with a displacement plethysmometer connected to a pressure transducer with a digital indicator. Three hours after the injection of the carrageenan, the volume of the foot was again measured.
In general terms: In the carrageenan paw model, swelling and tenderness develop within hours.

In assay [3] the target is T3, COX-2 (Mus musculus, UniProt Q05769).
T3 construct: A 2.0 kb fragment containing the coding region; made in house; host or cells: SF9 insect cells (baculovirus, pVL1393)
T3 sequence (Q05769 18-604): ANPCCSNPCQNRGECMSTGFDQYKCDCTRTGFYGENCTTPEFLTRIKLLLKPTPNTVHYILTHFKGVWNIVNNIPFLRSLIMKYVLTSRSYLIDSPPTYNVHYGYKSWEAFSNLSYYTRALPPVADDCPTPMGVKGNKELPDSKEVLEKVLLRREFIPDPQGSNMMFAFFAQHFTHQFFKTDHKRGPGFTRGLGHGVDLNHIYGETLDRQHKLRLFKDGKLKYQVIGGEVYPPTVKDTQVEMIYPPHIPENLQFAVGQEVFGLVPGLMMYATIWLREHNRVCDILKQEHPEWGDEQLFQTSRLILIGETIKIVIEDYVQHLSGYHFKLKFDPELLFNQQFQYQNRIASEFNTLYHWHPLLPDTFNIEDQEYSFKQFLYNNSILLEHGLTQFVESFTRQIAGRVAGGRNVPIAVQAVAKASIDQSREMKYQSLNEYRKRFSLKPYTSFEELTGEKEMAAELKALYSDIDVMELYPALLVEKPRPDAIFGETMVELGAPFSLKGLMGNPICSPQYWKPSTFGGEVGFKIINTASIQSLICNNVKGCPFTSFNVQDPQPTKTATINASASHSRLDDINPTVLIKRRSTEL
Put plainly: COX-2 activity in vitro, recombinant murine enzyme (PGE2 ELISA). The class given is biochemical. Conditions: murine (m); 10 μM arachidonic acid, 10-20 min pre-incubation; read-out: COX-2 ID50. How it is done: as §1, §2, §3

For assay [4], the target named is T4, COX-1 (Mus musculus, UniProt P22437).
T4 construct: A 2.0 kb fragment containing the coding region; made in house; host or cells: SF9 insect cells (baculovirus, pVL1393)
T4 sequence (P22437 27-602): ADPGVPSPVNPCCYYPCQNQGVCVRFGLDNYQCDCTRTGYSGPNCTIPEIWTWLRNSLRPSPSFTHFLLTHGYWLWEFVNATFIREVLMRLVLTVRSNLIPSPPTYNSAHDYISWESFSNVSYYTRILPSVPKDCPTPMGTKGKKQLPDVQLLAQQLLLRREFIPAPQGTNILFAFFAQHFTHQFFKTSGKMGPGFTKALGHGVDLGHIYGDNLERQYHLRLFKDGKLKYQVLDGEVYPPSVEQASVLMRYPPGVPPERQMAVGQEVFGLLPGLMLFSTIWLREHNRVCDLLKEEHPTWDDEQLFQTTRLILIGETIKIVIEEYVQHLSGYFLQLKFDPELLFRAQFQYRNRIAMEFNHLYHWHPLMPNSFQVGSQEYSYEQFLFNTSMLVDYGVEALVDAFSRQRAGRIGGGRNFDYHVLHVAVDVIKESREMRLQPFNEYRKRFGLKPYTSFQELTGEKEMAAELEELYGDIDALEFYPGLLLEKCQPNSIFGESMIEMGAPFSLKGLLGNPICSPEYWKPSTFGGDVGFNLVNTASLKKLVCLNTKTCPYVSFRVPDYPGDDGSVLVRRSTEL
Put plainly: COX-1 activity in vitro, recombinant murine enzyme (PGE2 ELISA). The following applies: murine (m); 10 μM arachidonic acid, 10-20 min pre-incubation; read-out: COX-1 ID50. The class given is biochemical. How it is done:
as §1, §2, §3

The results in this text go back to US5916905A, “2,3-substituted pyridines for the treatment of inflammation” (G. D. Searle & Co., priority 1997, dated 1999).

pIC50: −log10 of the molar value.

T1 sequence (P23219 24-599): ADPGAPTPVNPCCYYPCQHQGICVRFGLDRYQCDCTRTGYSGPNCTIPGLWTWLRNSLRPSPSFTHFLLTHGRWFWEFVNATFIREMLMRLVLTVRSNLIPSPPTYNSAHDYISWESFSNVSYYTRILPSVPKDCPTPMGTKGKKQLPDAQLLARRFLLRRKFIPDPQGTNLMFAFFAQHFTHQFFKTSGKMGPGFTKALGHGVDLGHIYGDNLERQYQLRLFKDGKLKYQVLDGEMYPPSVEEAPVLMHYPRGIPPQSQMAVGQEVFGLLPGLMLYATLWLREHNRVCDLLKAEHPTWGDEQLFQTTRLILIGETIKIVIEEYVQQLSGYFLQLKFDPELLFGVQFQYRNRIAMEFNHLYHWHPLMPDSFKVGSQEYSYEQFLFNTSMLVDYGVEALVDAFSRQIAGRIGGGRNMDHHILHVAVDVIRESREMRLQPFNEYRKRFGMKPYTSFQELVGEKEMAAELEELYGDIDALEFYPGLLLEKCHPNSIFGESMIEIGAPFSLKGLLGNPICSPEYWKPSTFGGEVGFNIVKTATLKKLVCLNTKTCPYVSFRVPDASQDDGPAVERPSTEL

Regarding `COc1nc(-c2ccc(F)cc2)c(-c2ccc(S(C)(=O)=O)cc2)cc1C#N` [Example 2, 6-(4-Fluorophenyl)-2-methoxy-5-[4-(methylsulfonyl)phenyl]-pyridine-3-carbonitrile], the pIC50 at COX-1 [1] is below 4.00; on COX-2 [2], 6.70. In the assay on carrageenan foot edema, the “RAT PAW EDEMA % Inhibition” value worked out at 16%.
With `CS(=O)(=O)c1ccc(-c2cc(C#N)c(Br)nc2-c2ccc(F)cc2)cc1` [Example 3, 2-Bromo-6-(4-fluorophenyl)-5-[4-(methylsulfonyl)phenyl]-pyridine-3-carbonitrile], the values for the pIC50 at COX-2 [3] and at COX-1 [4] were above 7.00 and below 5.00, respectively. Moreover, the “RAT PAW EDEMA % Inhibition” value in the assay with carrageenan foot edema is on record as 16%.
On to `CS(=O)(=O)c1ccc(-c2cc(C#N)c(-c3ccccc3)nc2-c2ccc(F)cc2)cc1` [Example 4, 6-(4-Fluorophenyl)-5-[4-(methylsulfonyl)phenyl]-2-phenyl-pyridine-3-carbonitrile], for which the pIC50 at COX-2 [3] was above 7.00; at COX-1 [4] it was below 5.00. For the same molecule, in the assay on carrageenan foot edema, the “RAT PAW EDEMA % Inhibition” value was 18%.
